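GI50 marks 50% less growth. TGI denotes the concentration required for complete inhibition of growth.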
Key:
Assay in all cases: NCI-60 cell line screen, 384-well format
786-0 renal = system: 786-0 renal
A498 renal = system: A498 renal
A549 NSCLC = system: A549 NSCLC
ACHN renal = system: ACHN renal
BT-549 breast = system: BT-549 breast
CAKI-1 renal = system: CAKI-1 renal
CCRF-CEM leukemia = system: CCRF-CEM leukemia
COLO 205 colon = system: COLO 205 colon
DU-145 prostate = system: DU-145 prostate
HCC-2998 colon = system: HCC-2998 colon
HCT-116 colon = system: HCT-116 colon
HCT-15 colon = system: HCT-15 colon
HL-60(TB) leukemia = system: HL-60(TB) leukemia
HOP-62 NSCLC = system: HOP-62 NSCLC
HOP-92 NSCLC = system: HOP-92 NSCLC
HT29 colon = system: HT29 colon
IGROV1 ovarian = system: IGROV1 ovarian
K-562 leukemia = system: K-562 leukemia
KM12 colon = system: KM12 colon
LOX IMVI melanoma = system: LOX IMVI melanoma
M14 melanoma = system: M14 melanoma
MALME-3M melanoma = system: MALME-3M melanoma
MCF7 breast = system: MCF7 breast
MDA-MB-231 breast = system: MDA-MB-231 breast
MDA-MB-435 melanoma = system: MDA-MB-435 melanoma
MDA-MB-468 breast = system: MDA-MB-468 breast
MOLT-4 leukemia = system: MOLT-4 leukemia
NCI-H226 lung = system: NCI-H226 lung

N[C@@H](CSSC[C@H](N)C(=O)N1CCn2cc(-c3ccccc3)nc2[C@@H]1CC1CCCCC1)C(=O)N1CCn2cc(-c3ccccc3)nc2[C@@H]1CC1CCCCC1
GI50 ([…]-0 renal): 1510 nM | TGI (786-0 renal): 2930 nM | GI50 (A498 renal): 1630 nM | TGI (A498 renal): 3000 nM | GI50 (A549 NSCLC): 1260 nM | TGI (A549 NSCLC): 2530 nM | GI50 (ACHN renal): 1950 nM | TGI (ACHN renal): 3390 nM | GI50 (BT-549 breast): 1840 nM | TGI (BT-549 breast): 3250 nM | GI50 (CAKI-1 renal): 1930 nM | TGI (CAKI-1 renal): 3560 nM | GI50 (CCRF-CEM leukemia): 294 nM | TGI (CCRF-CEM leukemia): 1270 nM | GI50 (COLO 205 colon): 1390 nM | TGI (COLO 205 colon): 2700 nM | GI50 (DU-145 prostate): 1850 nM | TGI (DU-145 prostate): 6340 nM | GI50 (HCC-2998 colon): 1700 nM | TGI (HCC-2998 colon): 3080 nM | GI50 (HCT-116 colon): 215 nM | TGI (HCT-116 colon): 490 nM | GI50 (HCT-15 colon): 1580 nM | TGI (HCT-15 colon): 2930 nM | GI50 (HL-60(TB) leukemia): 796 nM | TGI (HL-60(TB) leukemia): 1990 nM | GI50 (HOP-62 NSCLC): 1250 nM | TGI (HOP-62 NSCLC): 2530 nM | GI50 (HOP-92 NSCLC): 1980 nM | TGI (HOP-92 NSCLC): 3440 nM | GI50 (HT29 colon): 1470 nM | TGI (HT29 colon): 2840 nM | GI50 (IGROV1 ovarian): 1600 nM | TGI (IGROV1 ovarian): 3310 nM | GI50 (K-562 leukemia): 551 nM | TGI (K-562 leukemia): 1740 nM | GI50 (KM12 colon): 312 nM | TGI (KM12 colon): 1550 nM | GI50 (LOX IMVI melanoma): 1330 nM | TGI (LOX IMVI melanoma): 2620 nM | GI50 (M14 melanoma): 146 nM | TGI (M14 melanoma): 355 nM | GI50 (MALME-3M melanoma): 1140 nM | TGI (MALME-3M melanoma): 2360 nM | GI50 (MCF7 breast): 1460 nM | TGI (MCF7 breast): 2790 nM | GI50 (MDA-MB-231 breast): 1630 nM | TGI (MDA-MB-231 breast): 2990 nM | GI50 (MDA-MB-435 melanoma): 677 nM | TGI (MDA-MB-435 melanoma): 1930 nM | GI50 (MDA-MB-468 breast): 1080 nM | TGI (MDA-MB-468 breast): 2280 nM | GI50 (MOLT-4 leukemia): 140 nM | TGI (MOLT-4 leukemia): 271 nM | GI50 (NCI-H226 lung): 1820 nM

— PubChem BioAssay (NCI)
